Reference: publication PMC10895697 (JAC-Antimicrobial Resistance, 2024)
In brackets after ≈: the same amount, converted by molar mass. Where two headings read alike, the source gives them in different places.

Legend:
S. aureus 1814 (MRSA) = experiment: MIC/MBC by broth microdilution reference method; assay type: cell-based, Staphylococcus aureus; details: Staphylococcus aureus
S. aureus 1333 (MSSA) = experiment: MIC/MBC by broth microdilution reference method; assay type: cell-based, Staphylococcus aureus; details: Staphylococcus aureus
all S. aureus isolates = experiment: MIC/MBC by broth microdilution, summary over all isolates; assay type: cell-based, Staphylococcus aureus; details: Staphylococcus aureus, read-out: MICs for all S. aureus isolates
S. aureus 1817 (MSSA) = experiment: MIC/MBC by broth microdilution reference method; assay type: cell-based, Staphylococcus aureus; details: Staphylococcus aureus
S. aureus 1815 (MRSA) = experiment: MIC/MBC by broth microdilution reference method; assay type: cell-based, Staphylococcus aureus; details: Staphylococcus aureus
S. aureus 1818 (MSSA) = experiment: MIC/MBC by broth microdilution reference method; assay type: cell-based, Staphylococcus aureus; details: Staphylococcus aureus
S. aureus 1816 (MSSA) = experiment: MIC/MBC by broth microdilution reference method; assay type: cell-based, Staphylococcus aureus; details: Staphylococcus aureus
S. aureus 1334 (MSSA) = experiment: MIC/MBC by broth microdilution reference method; assay type: cell-based, Staphylococcus aureus; details: Staphylococcus aureus
[1] = system: S. aureus ATCC 29213 (MSSA reference strain); experiment: MIC/MBC by broth microdilution reference method; assay type: cell-based, Staphylococcus aureus; details: Staphylococcus aureus
macrophages (THP-1) = system: macrophages (THP-1)
Protocol: (§1) In both models, the viability was assessed using the MTT assay to determine the potential cytotoxicity of antimicrobials on untreated and infected/treated cells. Briefly, an MTT solution (0.5 mg/mL) was added to the cell medium without FBS. After washing with PBS and a 30 min incubation at 37°C, the formazan crystals formed were dissolved in DMSO. Absorbance values at 540 nm were measured using a BioTek Synergy 2 microplate reader.

osteoblasts (MG-63) = system: osteoblasts (MG-63)
Protocol: as §1

[2] = system: intra-macrophagic S. aureus; experiment: Macrophage infection model (THP-1), intracellular activity; assay type: cell-based, Staphylococcus aureus; details: THP-1, MRSA 1814, MRSA 1815, MSSA 1333 and MSSA 1334, 2 x MIC, 24 h after treatment, vs untreated cells
Protocol: The macrophage infection model was performed using the THP-1 human monocytic cell line (ATCC, Rockville, USA). In brief, cells were cultured in the Roswell Park Memorial Institute (RPMI) medium supplemented with 10% FBS in T75 flasks at 37°C and 5% CO2, and were maintained through weekly transfers within passages 2 to 20. For the assays, THP-1 cells were seeded in 12-well plates and differentiated into macrophages with phorbol myristate acetate (PMA) for 72 h until they reached approximately 80% confluence. Bacterial suspensions, grown overnight in BHI, were prepared and adjusted to an moi of 10, and then introduced to the macrophages. After a 2 h coincubation to facilitate bacterial adherence, the cells were washed and treated with 100 mg/L gentamicin for 1 h. […] Finally, intracellular bacterial cells were enumerated from cellular lysates (following osmotic shock) by plating them onto BHI agar. Infected but untreated cells were used as a control in all experiments. The number of cfu in treated cells was standardized as a percentage of the controls.
(§2) Figure 2. […] Data represent the mean ± SD of three independent experiments. Intracellular cfu counts were normalized relative to untreated cells (depicted by black histograms), and differences between treated and untreated cells, as well as between the two compounds, were assessed using the Mann–Whitney U-test. ***P < 0.001; ****P < 0.0001.

[3] = system: intra-osteoblastic S. aureus; experiment: Osteoblast infection model (MG-63), intracellular activity; assay type: cell-based, Staphylococcus aureus; details: MG-63, all four isolates (2 MSSA and 2 MRSA), 2 x MIC, 3 h after treatment, vs untreated cells
Protocol: The osteoblast infection model was conducted using MG-63 (CRL-1427) osteoblastic cells, following previously published procedures.[19] Briefly, MG-63 cells were cultured at 37°C in a 5% CO2 environment and passaged weekly for up to 20 weeks. The culture medium used was DMEM supplemented with 10% FBS, 25 mM HEPES, 2 mM L-glutamine, with or without antibiotics (100 U/mL penicillin plus 100 mg/L streptomycin). For the assays, MG-63 cells were seeded in 24-well plates until reaching 70%–80% confluence. Bacterial cell suspensions grown overnight in BHI broth were prepared and adjusted to an moi of 50, and then introduced to the osteoblasts. After a 2 h coincubation to facilitate bacterial adhesion, MG-63 cells were rinsed and treated with 100 mg/L gentamicin for 1 h to eliminate extracellular bacterial cells. […] Finally, intracellular bacterial cells were quantified in cellular lysates (following osmotic shock) by plating them onto BHI agar.
as §2, with “1.” for “2.”, “from” for “of”, “U-test. *P < 0.05; **P < 0.01;” for “U-test.”

MSSA 1334 = experiment: Mouse model of septic arthritis; assay type: in vivo; details: MSSA 1334-infected mice, Pep16 10 mg/kg or vancomycin 100 mg/kg subcutaneous daily
Protocol: Female Swiss mice, obtained from Janvier Labs and aged between 11 and 13 weeks with an approximate weight of 34 g, were used. The experiments were conducted in the ARCHE animal facility (Biosit) in Rennes. Mice were inoculated IV with 200 μL of a 0.9% NaCl solution containing approximately 10^8 cfu of the 1334 strain (MSSA). […] These treatments were administered daily for a duration of 7 days. […] The mice were monitored on a daily basis, and on the seventh day, they were humanely euthanized using CO2. Subsequently, knee joints, spleen and kidneys were excised, weighed and homogenized in 0.9% NaCl using a Polytron PT 3100D homogenizer (Kinematica, Switzerland). Bacterial loads were determined by plating serial dilutions onto BHI agar and expressed as log10 cfu/g.
Figure 3. Bacterial loads (in log cfu/g) at Day 7 in knee joints, kidneys and spleen from mice infected by MSSA 1334. Mice were initially inoculated with approximately 1 × 10^8 cfu of MSSA 1334. […] Treatments were administered via subcutaneous injection and continued daily until the conclusion of the experiment. Individual dots on the graph represent cfu counts for single animals (enumerated at Day 7), with black horizontal lines indicating median values. The experiments were performed with five mice per condition, in triplicate for Pep16 and saline solution, and in duplicate for vancomycin. […]

CCCCCCCCCC(=O)N[C@@H](Cc1c[nH]c2ccccc12)C(=O)N[C@H](CC(N)=O)C(=O)N[C@@H](CC(=O)O)C(=O)N[C@@H]1C(=O)NCC(=O)N[C@@H](CCCN)C(=O)N[C@@H](CC(=O)O)C(=O)N[C@H](C)C(=O)N[C@@H](CC(=O)O)C(=O)NCC(=O)N[C@H](CO)C(=O)N[C@@H]([C@H](C)CC(=O)O)C(=O)N[C@@H](CC(=O)c2ccccc2N)C(=O)O[C@@H]1C [DAP, daptomycin]
MBC (S. aureus 1814 (MRSA); MRSA): 0.5 µg/mL (≈ 0.309 µM) | MIC (S. aureus 1814 (MRSA); MRSA): 0.25 µg/mL (≈ 0.154 µM) | MBC (S. aureus 1333 (MSSA); MSSA): 0.5 µg/mL (≈ 0.309 µM) | MIC (S. aureus 1333 (MSSA); MSSA): 0.25 µg/mL (≈ 0.154 µM) | MIC (all S. aureus isolates): 0.25 µg/mL (≈ 0.154 µM) | MBC (S. aureus 1817 (MSSA); MSSA): 0.5 µg/mL (≈ 0.309 µM) | MIC (S. aureus 1817 (MSSA); MSSA): 0.25 µg/mL (≈ 0.154 µM) | MBC (S. aureus 1815 (MRSA); MRSA): 0.5 µg/mL (≈ 0.309 µM) | MIC (S. aureus 1815 (MRSA); MRSA): 0.25 µg/mL (≈ 0.154 µM) | MBC (S. aureus 1818 (MSSA); MSSA): 0.5 µg/mL (≈ 0.309 µM) | MIC (S. aureus 1818 (MSSA); MSSA): 0.25 µg/mL (≈ 0.154 µM) | MBC (S. aureus 1816 (MSSA); MSSA): 0.5 µg/mL (≈ 0.309 µM) | MIC (S. aureus 1816 (MSSA); MSSA): 0.25 µg/mL (≈ 0.154 µM) | MBC (S. aureus 1334 (MSSA); MSSA): 0.5 µg/mL (≈ 0.309 µM) | MIC (S. aureus 1334 (MSSA); MSSA): 0.25 µg/mL (≈ 0.154 µM) | MBC [1]: 0.5 µg/mL (≈ 0.309 µM) | MIC [1]: 0.25 µg/mL (≈ 0.154 µM)

C[C@H]1COc2c(N3CCN(C)CC3)c(F)cc3c(=O)c(C(=O)O)cn1c23 [LVX, levofloxacin]
direct cytotoxicity on uninfected macrophages (MTT) (macrophages (THP-1)): no significant direct cytotoxicity | direct cytotoxicity on uninfected osteoblasts (MTT) (osteoblasts (MG-63)): did not observe any significant direct cytotoxicity | MBC (S. aureus 1814 (MRSA); strain 1814, MRSA ciprofloxacin resistant, broth microdilution, read-out: MBC): 4 µg/mL (≈ 11.1 µM) | MIC (S. aureus 1814 (MRSA); strain 1814, MRSA ciprofloxacin resistant, broth microdilution, read-out: MIC): 4 µg/mL (≈ 11.1 µM) | MBC (S. aureus 1333 (MSSA); strain 1333, MSSA multi-susceptible, broth microdilution, read-out: MBC): 0.5 µg/mL (≈ 1.38 µM) | MIC (S. aureus 1333 (MSSA); strain 1333, MSSA multi-susceptible, broth microdilution, read-out: MIC): 0.5 µg/mL (≈ 1.38 µM) | effect on intracellular inoculum in macrophages [2]: significantly reducing the intracellular inoculum | MIC (all S. aureus isolates; summary over all S. aureus isolates of Table 1, broth microdilution): 0.25 to 4 µg/mL (≈ 0.692 to 11.1 µM) | MBC (S. aureus 1817 (MSSA); strain 1817, MSSA erythromycin resistant, broth microdilution, read-out: MBC): 0.25 µg/mL (≈ 0.692 µM) | MIC (S. aureus 1817 (MSSA); strain 1817, MSSA erythromycin resistant, broth microdilution, read-out: MIC): 0.25 µg/mL (≈ 0.692 µM) | MBC (S. aureus 1815 (MRSA); strain 1815, MRSA gentamicin and erythromycin resistant, broth microdilution, read-out: MBC): 0.5 µg/mL (≈ 1.38 µM) | MIC (S. aureus 1815 (MRSA); strain 1815, MRSA gentamicin and erythromycin resistant, broth microdilution, read-out: MIC): 0.5 µg/mL (≈ 1.38 µM) | MBC (S. aureus 1818 (MSSA); strain 1818, MSSA multi-susceptible, broth microdilution, read-out: MBC): 0.25 µg/mL (≈ 0.692 µM) | MIC (S. aureus 1818 (MSSA); strain 1818, MSSA multi-susceptible, broth microdilution, read-out: MIC): 0.25 µg/mL (≈ 0.692 µM) | MBC (S. aureus 1816 (MSSA); strain 1816, MSSA multi-susceptible, broth microdilution, read-out: MBC): 0.25 µg/mL (≈ 0.692 µM) | MIC (S. aureus 1816 (MSSA); strain 1816, MSSA multi-susceptible, broth microdilution, read-out: MIC): 0.25 µg/mL (≈ 0.692 µM) | MBC (S. aureus 1334 (MSSA); strain 1334, MSSA multi-susceptible, broth microdilution, read-out: MBC): 0.5 µg/mL (≈ 1.38 µM) | MIC (S. aureus 1334 (MSSA); strain 1334, MSSA multi-susceptible, broth microdilution, read-out: MIC): 0.5 µg/mL (≈ 1.38 µM) | MBC ([1]; reference strain ATCC 29213, MSSA, broth microdilution, read-out: MBC): 0.5 µg/mL (≈ 1.38 µM) | MIC ([1]; reference strain ATCC 29213, MSSA, broth microdilution, read-out: MIC): 0.5 µg/mL (≈ 1.38 µM) | effect on intracellular bacterial load in osteoblasts [3]: significantly reduced the bacterial load

CN[C@H](CC(C)C)C(=O)N[C@H]1C(=O)N[C@@H](CC(N)=O)C(=O)N[C@H]2C(=O)N[C@H]3C(=O)N[C@H](C(=O)N[C@H](C(=O)O)c4cc(O)cc(O)c4-c4cc3ccc4O)[C@H](O)c3ccc(c(Cl)c3)Oc3cc2cc(c3O[C@@H]2O[C@H](CO)[C@@H](O)[C@H](O)[C@H]2O[C@H]2C[C@](C)(N)[C@H](O)[C@H](C)O2)Oc2ccc(cc2Cl)[C@H]1O [VAN, vancomycin]
MBC (S. aureus 1814 (MRSA); MRSA): 0.5 µg/mL (≈ 0.345 µM) | MIC (S. aureus 1814 (MRSA); MRSA): 0.5 µg/mL (≈ 0.345 µM) | MBC (S. aureus 1333 (MSSA); MSSA): 0.5 µg/mL (≈ 0.345 µM) | MIC (S. aureus 1333 (MSSA); MSSA): 0.5 µg/mL (≈ 0.345 µM) | MIC (all S. aureus isolates): 0.5 µg/mL (≈ 0.345 µM) | MBC (S. aureus 1817 (MSSA); MSSA): 0.5 µg/mL (≈ 0.345 µM) | MIC (S. aureus 1817 (MSSA); MSSA): 0.5 µg/mL (≈ 0.345 µM) | MBC (S. aureus 1815 (MRSA); MRSA): 0.5 µg/mL (≈ 0.345 µM) | MIC (S. aureus 1815 (MRSA); MRSA): 0.5 µg/mL (≈ 0.345 µM) | MBC (S. aureus 1818 (MSSA); MSSA): 0.5 µg/mL (≈ 0.345 µM) | MIC (S. aureus 1818 (MSSA); MSSA): 0.5 µg/mL (≈ 0.345 µM) | survival of infected mice at Day 7 (MSSA 1334): had survived at Day 7 | MBC (S. aureus 1816 (MSSA); MSSA): 0.5 µg/mL (≈ 0.345 µM) | MIC (S. aureus 1816 (MSSA); MSSA): 0.5 µg/mL (≈ 0.345 µM) | MBC (S. aureus 1334 (MSSA); MSSA): 0.5 µg/mL (≈ 0.345 µM) | MIC (S. aureus 1334 (MSSA); MSSA): 0.5 µg/mL (≈ 0.345 µM) | MBC [1]: 0.5 µg/mL (≈ 0.345 µM) | MIC [1]: 0.5 µg/mL (≈ 0.345 µM)
